Results taken from patent US11957139B2, “Compositions for improving nitrogen utilization in a ruminant” (Evonik Operations GmbH, priority 2016, dated 2024).
Read-outs that look alike come from different tables or passages of the source.

What was measured:
Holstein heifers [1] = assay: Somatic growth after ruminal versus abomasal infusion (Example 3); format: in vivo; conditions: infused in the abomasum compared to equivalent amount in the rumen; at least 2 months
Excerpt: Heifers are individually weighed on the first day of each experimental period (i.e. day 1) and on the last day of the experimental period (i.e., after at least 2 months, such as after 6 months). […] An increase in body weight indicates an increase in somatic growth while a decrease or no change in body weight indicates a decrease in somatic growth or unchanged somatic growth, respectively.

lactating heifers = assay: Milk production after ruminal versus abomasal infusion (Example 4); format: in vivo, Holstein heifers; conditions: infused in the abomasum compared to equivalent amount in the rumen
Excerpt: The experimental procedure and animal treatments is the same as described above for example 1, except that the Holstein heifers were lactating heifers.

Holstein heifers [2] = test system: Holstein heifers
Method: The objective of this experiment was to evaluate the effects of ruminal versus abomasal infusion of ammonia (an equivalent source of NPN) on food intake in ruminants.
Feed intake was calculated according to the following formula: Feed intake=[amount of feed provided at the beginning of the day]−[amount of feed left intact (i.e. not eaten) after a period of 24 hours]). Results

Holstein heifers [3] = assay: Nitrogen intake, excretion, digestibility and retention after ruminal infusion of urea sources; format: in vivo
Method: Each heifer was rumen-cannulated.
On the first and second day of experimental period, faeces were collected during 48 h. During this period wood shaves were withdrawn from the mattresses. On day 1, before the ruminal infusion of tested articles, a baseline sample was taken directly from the rectum of each animal. From the moment of ruminal incubation, total faeces were collected for 48 hours. During collection days, faeces were well homogenized, weighted, and a sub-sample (≈200 g) taken on the following hours of the day: 0800 (only for day 2) 1100, 1500 and 1900.

Holstein heifers [4] = assay: Apparent fiber digestibility after ruminal versus abomasal infusion of urea; format: in vivo
Excerpt: The experiment included a four-week adaptation period to a basal diet (in this case mimicking a winter tropical diet (winter tropical climate being an Aw climate) in addition to the distinct experimental periods (i.e. one experimental period per treatment regimen listed in Table 1), each lasting fourteen days.
Each heifer was rumen-cannulated. A tube was inserted into the abomasum via the rumen cannula to bypass the rumen.
The experiment consisted of two treatment groups subjected to different treatment regimens.
After the adaptation period, the heifers were exposed to the treatment regimens (i.e. consecutively, starting with treatment 1 and followed by treatment 2) as described in Table 1 (2 weeks per treatment regimen).
Heifers were fed low quality hay twice a day (08 h 30 and 16 h 30). The heifers were allowed to eat ad libitum during both feeding events.
An amount of one kilogram of compound feed (referred to as the ‘compound feed trial’), as a meal, was given in the morning (08 h 30) through the cannula (see Table 2). The details over the compositions of hay and compound feed (‘compound feed adaptation’ and ‘compound feed trial’) are presented in Table 3 below. Animals had free access to water troughs throughout the day.
All heifers were simultaneously infused in the rumen and the abomasum. This experimental design allowed each heifer to receive every treatment (consecutively), which provided 4 replicates per treatment. The two experimental periods described in Table 1 lasted 14 days each. For each individual treatment regimen, the fourteen-day period consisted of 8 days of adaptation, 4 days for sampling, and 2 days of rest without any infusions.
Whenever the treatment solution was infused in the rumen, a placebo solution (e.g. saline solution) was infused in the abomasum and whenever the treatment solution was infused in the abomasum, a placebo solution (e.g. water) was infused in the rumen. In the present case, it was necessary to infuse a saline solution in the abomasum (as opposed to water) in order to avoid problems related to osmotic pressure due to the small volume of the abomasum. This situation requires the use of a solution, which has an osmotic pressure similar to that of blood. A physiological saline solution fulfils this requirement. […] Therefore, infusion of water is suitable for the rumen.
Each heifer was equipped with two infusion lines via the cannula bung. Specifically, the first line delivered the solution straight into the rumen; the second line passed through the rumen into the omasum, using a rubber flange as anchor, delivering the pumped solution into the abomasum (Gressley et al. (2006)).
Infusate levels and infusion rates were checked 3 times per day (at 09:00 h;16:00 h and 21:00 h). Whenever necessary, manifold tubes with different inner diameter were replaced to adjust rate or level of solution, aiming to reach 10 L (or 5 L during the first two days of the period) infused continually in 24 h. The infusion rate was set at 3.5 mL/min (5 L/d) for the first two days of adaptation in each experimental period and 6.9 mL/min (10 L/d) for the remaining days.
Samples of compound feed and hay were taken from day 09 to 12 of each experimental period. After samples were collected, a portion was used to determine dried matter content (DM) at 60° C. 72 h and the rest was stored at −20° C. in a large bag labelled with the period number and trial code.

Holstein heifers [5] = conditions: 150 g urea equivalent infused into rumen; 0-12 h post-infusion; FIG. 18
Excerpt: Three non-lactating, non-pregnant Holstein heifers were used for the experiment. The Holstein heifers were on average 48±0.5 months of age and weighed on average 800 kg. Each heifer was rumen-cannulated. The experimental design was a 3×3 Latin Square, involving 3 treatments, 3 periods and 3 animals. Experimental unit is the combination animal×period, totalizing 9 experimental units.
The experiment consisted of 3 treatment regimens (i.e. treatment groups 1, 2, and 3). Specifically, each treatment group differed with respect to the NPN composition they received.
Heifers were housed in a tie-stall barn with individual water and feed troughs, rubber mattresses, and wood shaving bedding. The tie-stall was cleaned and the wood shaving replaced daily. Heifers were fed low quality hay ad libitum. Each experimental period last 4 days in which test products were infused in the rumen (day one) and samples were taken on the following 48 h.
Rumen fluid samples were taken at 0, 0.5, 1, 2, 3, 6, and 12 h post-infusion through a tube adapted to the rumen cannula.

[6] = ammonia infused into abomasum over 24 h (AA)
[7] = ammonia infused into rumen over 24 h (AR)
[8] = during the 48 hours following N infusion into rumen
[9] = urea 127 g/day infused into the abomasum over 24 h (UA)
[10] = urea 127 g/day infused into the rumen once a day (UR)

For `N` [ammonia], the “body weight at the end of the treatment” value (Holstein heifers [1]) was “increased body weight”, the “milk production at the end of the treatment” value (lactating heifers) was “increased milk production” and the “Feed intake, Crude Protein (Feed)” value (Holstein heifers [2]; [6]) was 0.581 kg/day. For the same compound, the “Feed intake, Crude Protein (Total)” value (Holstein heifers [2]; [6]) was 0.952 kg/day, the “Feed intake, Hay Dry Matter” value (Holstein heifers [2]; [6]) was 6.09 kg/day and the “Feed intake, Neutral detergent fiber” value (Holstein heifers [2]; [6]) was 4.38 kg/day. The “Feed intake, Organic Matter” value (Holstein heifers [2]; [6]) was 6.58 kg/day, the “Feed intake, Total Dry Matter” value (Holstein heifers [2]; [6]) was 6.97 kg/day and the “Feed intake, Crude Protein (Feed)” value (Holstein heifers [2]; [7]) was 0.537 kg/day. For the same compound, the “Feed intake, Crude Protein (Total)” value (Holstein heifers [2]; [7]) was 0.907 kg/day, the “Feed intake, Hay Dry Matter” value (Holstein heifers [2]; [7]) was 5.37 kg/day and the “Feed intake, Neutral detergent fiber” value (Holstein heifers [2]; [7]) was 3.87 kg/day. For the same compound, the “Feed intake, Organic Matter” value (Holstein heifers [2]; [7]) was 5.90 kg/day, the “Feed intake, Total Dry Matter” value (Holstein heifers [2]; [7]) was 6.26 kg/day and the “feed intake of hay and total nutrient, in words” value (Holstein heifers [2]; ammonia into abomasum relative to ammonia in the rumen) was “increase in feed intake”.
In the case of urea, the “body weight at the end of the treatment” value (Holstein heifers [1]) is reported as “increased body weight”, the N digestibility (Holstein heifers [3]; ((N intake − N excreted)/N intake) * 100) is reported as 61.81% and the “Total N excretion” value (Holstein heifers [3]; Faecal N excretion + Urinary N excretion, 48 h) is reported as 228.22 g. For the same compound, the N excretion faeces (Holstein heifers [3]; [8]) was 119.92 g, the N excretion urine (Holstein heifers [3]; [8]) was 108.30 g and the “N Intake” value (Holstein heifers [3]; total N intake in 48 h including N infusion into rumen) was 307.58 g. The “Apparent fiber digestibility, Dry matter” value (Holstein heifers [4]; [9]) was 51.36%, the “Apparent fiber digestibility, Neutral detergent fiber” value (Holstein heifers [4]; [9]) was 48.27% and the “Apparent fiber digestibility, Organic matter” value (Holstein heifers [4]; [9]) was 52.79%. For the same compound, the “Apparent fiber digestibility, Dry matter” value (Holstein heifers [4]; [10]) was 49.35%, the “Apparent fiber digestibility, Neutral detergent fiber” value (Holstein heifers [4]; [10]) was 43.75% and the “Apparent fiber digestibility, Organic matter” value (Holstein heifers [4]; [10]) was 50.18%. The “apparent fiber digestibility, in words” value (Holstein heifers [4]; urea in the abomasum compared to urea in the rumen) was “increased”, the “milk production at the end of the treatment” value (lactating heifers) was “increased milk production” and the “ruminal ammonia concentration over time, in words” value (Holstein heifers [5]) was “higher”.
